Results as given in patent publication EP4656642A1, “ESTROGEN RECEPTOR PROTEOLYSIS TARGETING CHIMERA COMPOUND AND USE THEREOF” (GAN & LEE PHARM CO., LTD, priority 2023, dated 2024).

What was measured:
Type in all cases: cell-based
ERα [1] = molecular target: T1, ERα (Homo sapiens, UniProt P03372); test: Degradation of ERα in MCF-7 cells (immunoblotting, 4 h)
T1 sequence (P03372 1-595): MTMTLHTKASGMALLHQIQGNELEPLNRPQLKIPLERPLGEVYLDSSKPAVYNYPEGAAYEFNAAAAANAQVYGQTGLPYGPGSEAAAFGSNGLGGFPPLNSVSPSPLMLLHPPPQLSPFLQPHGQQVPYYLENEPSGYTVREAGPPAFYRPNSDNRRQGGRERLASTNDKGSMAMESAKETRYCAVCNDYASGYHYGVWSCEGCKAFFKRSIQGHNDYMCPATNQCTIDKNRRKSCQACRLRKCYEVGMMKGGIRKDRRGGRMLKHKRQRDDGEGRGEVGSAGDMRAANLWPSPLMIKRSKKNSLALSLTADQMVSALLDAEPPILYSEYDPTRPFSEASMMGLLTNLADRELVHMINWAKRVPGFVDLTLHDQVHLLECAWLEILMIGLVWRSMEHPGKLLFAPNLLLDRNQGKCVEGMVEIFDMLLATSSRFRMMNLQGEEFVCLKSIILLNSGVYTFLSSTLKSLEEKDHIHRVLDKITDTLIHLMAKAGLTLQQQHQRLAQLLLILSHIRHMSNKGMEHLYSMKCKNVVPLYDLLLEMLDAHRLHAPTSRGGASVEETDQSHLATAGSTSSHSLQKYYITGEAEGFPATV
In short: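 Degradation rate reflects ERα band intensity, corrected to an internal reference protein, relative to control. Values come from Western blotting of lysates from MCF-7 cells exposed 4 h at 37°C to compounds at final concentrations of 0.15-1000nM.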

ERα [2] = molecular target: T1, ERα; test: Degradation of ERα in T-47D cells (immunoblotting, 4 h); design: host or cells: T-47D
In short: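 ERα protein levels were assessed by immunoblot of RIPA lysates (with protease inhibitor) after 4 h exposure at 37°C. Compound was added in DMSO to T-47D cells at final concentrations of 0.15-1000 nM.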

MCF-7 cells = test: Inhibition of cell proliferation of MCF-7 cells (CCK-8, 9 days); settings: treated for 9 days, CCK-8 kit (Table 6)
In short: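 Read-out was CCK-8 viability after 9-day continuous exposure (37°C, 5% CO2) of MCF-7 cells plated at 800/well in 10% FBS DMEM across several compound concentrations. Values are proliferation IC50s.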

Row | Compound | Degradation rate (%) of ERα in MCF-7 cells (ERα [1]; 1nM compound) [%] | Degradation rate (%) of ERα in MCF-7 cells (ERα [1]; 10nM compound) [%] | Degradation rate (%) of ERα in T-47D cells (ERα [2]; 1nM compound) [%] | Degradation rate (%) of ERα in T-47D cells (ERα [2]; 10nM compound) [%] | IC50 (MCF-7 cells) [nM]
1 | CN(CC(=O)N1CCC2(CC1)COc1c2ccc2c1CN(C1CCC(=O)NC1=O)C2=O)CC1CCN(c2ccc([C@@H]3c4ccc(O)cc4CC[C@@H]3c3ccccc3)cc2)CC1 (some centres unmarked) [J10] | 50 | 73 | 70 | 88 | 6.12
2 | O=C1CCC(N2Cc3c(ccc4c3OCC43CCN(C(=O)C4CN(CC5CCN(c6ccc([C@@H]7c8ccc(O)cc8CC[C@@H]7c7ccccc7)cc6)CC5)C4)CC3)C2=O)C(=O)N1 (some centres unmarked) [K33] | 57 | 62 | 58 | 70 | 17.5
3 | O=C1CCC(N2C(=O)c3ccc4c(c3C2=O)OCC42CCN(C(=O)CN3CCC4(CC3)CCN(c3ccc([C@@H]5c6ccc(O)cc6CC[C@@H]5c5ccccc5)cc3)CC4)CC2)C(=O)N1 (some centres unmarked) [A68] | 11 | 40 | 35 | 77 | 19.1
4 | O=C1CCC(N2Cc3c(ccc4c3OCC43CCN(CC4CN(C(=O)C5CCN(c6ccc([C@@H]7c8ccc(O)cc8CC[C@@H]7c7ccccc7)cc6)CC5)C4)CC3)C2=O)C(=O)N1 (some centres unmarked) [D5] | 61 | 58 | 68 | 80 | 180
5 | O=C1CCC(N2Cc3c(ccc4c3OCC43CCN(C4CC5CCCC(C4)N5C(=O)C4CCN(c5ccc([C@@H]6c7ccc(O)cc7CC[C@@H]6c6ccccc6)cc5)CC4)CC3)C2=O)C(=O)N1 (some centres unmarked) [D1] | 19 | 68 | 34 | 83 | 9.05
6 | O=C1CCC(N2Cc3c(ccc4c3OCC43CCN(C(=O)CN4CCC5(CC4)CCN(c4ccc([C@@H]6c7ccc(O)cc7CC[C@@H]6c6ccccc6)cc4)CC5)CC3)C2=O)C(=O)N1 (some centres unmarked) [A62] | 52 | 82 | 73 | 89 | 15.2
7 | O=C1CCC(N2Cc3c(ccc4c3OCC43CCN(C4CCN(CC5CCN(c6ccc([C@@H]7c8ccc(O)cc8CC[C@@H]7c7ccccc7)cc6)CC5)CC4F)CC3)C2=O)C(=O)N1 (some centres unmarked) [J5] | 40 | 78 | 46 | 81 | 4.63
8 | O=C1CCC(N2Cc3c(ccc4c3OCC43CCN(C[C@H]4CC[C@@H](C#Cc5ccc([C@@H]6c7ccc(O)cc7CC[C@@H]6c6ccccc6)cc5)CC4)CC3)C2=O)C(=O)N1 (some centres unmarked) [H53] | 10 | 14 | 5 | 35 | 41.9
9 | O=C1CCC(N2Cc3c(ccc4c3OCC43CCN(C(=O)C4CCC5(CC4)CN(c4ccc([C@@H]6c7ccc(O)cc7CC[C@@H]6c6ccccc6)cc4)C5)CC3)C2=O)C(=O)N1 (some centres unmarked) [A83] | 23 | 46 | 40 | 62 | 39
10 | O=C1CCC(N2C(=O)c3cc4c(cc3C2=O)OC2(CCN(C3CC5(CCN(c6ccc([C@@H]7c8ccc(O)cc8CC[C@@H]7c7ccccc7)cc6)CC5)C3)CC2)C4)C(=O)N1 (some centres unmarked) [K1] | -2 | -3 | 7 | 27 | 511
11 | CN(C)C(=O)[C@@H]1CC(N2CCC3(CC2)COc2c3ccc3c2CN(C2CCC(=O)NC2=O)C3=O)CCN1C(=O)C1CCN(c2ccc([C@@H]3c4ccc(O)cc4CC[C@@H]3c3ccccc3)cc2)CC1 (some centres unmarked) [K29] | 43 | 66 | 46 | 79 | 19.5
12 | O=C1CCC(N2Cc3c(ccc4c3OCC43CCN(C4CCN(C(=O)C5CCC6(CC5)CCN(c5ccc([C@@H]7c8ccc(O)cc8CC[C@@H]7c7ccccc7)cc5)CC6)CC4)CC3)C2=O)C(=O)N1 (some centres unmarked) [B18] | 36 | 64 | 54 | 79 | 15.6
13 | O=C1CCC(N2Cc3c(ccc4c3OC3(CC4)CCN(C4CN(C5CCN(c6ccc([C@@H]7c8ccc(O)cc8CC[C@@H]7c7ccccc7)cc6)CC5)C4)CC3)C2=O)C(=O)N1 (some centres unmarked) [K2] | -10 | 3 | 8 | 16 | 1990
14 | O=C1CCC(N2Cc3c(ccc4c3OCC43CCN(CC(=O)N4CCC(Oc5ccc([C@@H]6c7ccc(O)cc7CC[C@@H]6c6ccccc6)cc5)CC4)CC3)C2=O)C(=O)N1 (some centres unmarked) [H59] | 40 | 34 | 61 | 46 | 7360
15 | O=C1CCC(N2C(=O)c3ccc4c(c3C2=O)OCC42CCN(C3CC4(C3)CN(c3ccc([C@@H]5c6ccc(O)cc6CC[C@@H]5c5ccccc5)cc3)C4)CC2)C(=O)N1 (some centres unmarked) [L19] | 9 | 14 | 12 | 9 | 86
16 | O=C1CCC(N2C(=O)c3ccc4c(c3C2=O)OCC42CCN(CC3CCN(c4ccc([C@@H]5c6ccc(O)cc6CC[C@@H]5c5ccccc5)cc4)CC3)CC2)C(=O)N1 (some centres unmarked) [H4] | -32 | -7 | -41 | -48 | 7740
